Reference: US6277872A, “Oxadiazoles, processes for their preparation and their use as medicaments” (Boehringer Ingelheim KG, priority 1996, dated 2001)

Tests used:
Sigma receptor = Sigma receptor binding study; conditions: test concentration typically 10 μM
Experimental: (§1) The tests were typically carried out at a test concentration of 10 μM.

Histamine H1 receptor = biological target: T1, Histamine H1 receptor (Cavia porcellus, UniProt P31389); test: Histamine H1 receptor binding study; conditions: test concentration typically 10 μM; read-out: H1 Inh. [%]
T1 construct: from tissue
T1 sequence (P31389 whole entry): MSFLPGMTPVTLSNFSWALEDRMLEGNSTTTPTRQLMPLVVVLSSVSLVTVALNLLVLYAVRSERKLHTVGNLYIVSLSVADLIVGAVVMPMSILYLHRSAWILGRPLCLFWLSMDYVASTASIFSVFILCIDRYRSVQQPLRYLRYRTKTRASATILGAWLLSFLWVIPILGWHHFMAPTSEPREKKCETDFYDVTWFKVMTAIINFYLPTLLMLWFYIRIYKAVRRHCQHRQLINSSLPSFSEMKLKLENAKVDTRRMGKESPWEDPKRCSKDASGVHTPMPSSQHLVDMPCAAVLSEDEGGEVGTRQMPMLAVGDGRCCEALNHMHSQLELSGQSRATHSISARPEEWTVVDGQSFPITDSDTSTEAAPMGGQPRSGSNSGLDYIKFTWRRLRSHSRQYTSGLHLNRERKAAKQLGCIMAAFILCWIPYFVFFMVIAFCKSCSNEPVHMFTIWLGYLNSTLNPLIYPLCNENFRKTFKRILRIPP
From the text: Table 5 summarises the inhibitory values on the above receptors:

[1] = tested on: "Na+ channel site 2"-binding site; test: Binding to the Na+ channel site 2 binding site ([3H]-BTX); conditions: test concentration typically 10 μM
Experimental: as §1

AMPA receptor = test: Inhibition of the cainate-induced signal at the AMPA receptor, electrophysiology on neuronal cells (Patch-Clamp-Method); format: cell-based; conditions: test concentration of 100 μM
Experimental: The tests were carried out at a test concentration of 100 μM.

Row | SMILES | Sigma Inh. [%] (Sigma receptor) | inhibition at 10 µM (Histamine H1 receptor) | Na+-channel Inh. [%] ([3H]-BTX) [1] | AMPA Inh. [%] (inhibiting the cainate-induced signal at the AMPA receptor) (AMPA receptor)
1 | CN(C)CCOc1ccccc1-c1noc(-c2ccccc2)n1 [Example 3, 3-{2-[2-(N,N-Dimethylamino)ethyl]oxy-phenyl}-5-phenyl-1,2,4-oxadiazole] | 62% | 98% | 91% | 96%
2 | c1ccc(-c2noc(-c3ccccc3OCCN3CCOCC3)n2)cc1 [Example 4, 5-{2-[2-(Morpholino)ethyl]oxy-phenyl}-3-phenyl-1,2,4-oxadiazole] | 41% | 44% | 79% | 71%
3 | CN1CCN(CCOc2ccccc2-c2nc(-c3ccccc3)no2)CC1 [Example 5, 5-{2-[2-(4-methylpiperazin-1-yl)ethyl]oxy-phenyl}-3-phenyl-1,2,4-oxadiazole] | 90% | 74% | 78% | 84%
4 | CN(C)CCOc1ccccc1-c1nc(-c2ccc(O)cc2)no1 [Example 8, 5-{2-[2-(N,N-Dimethylamino)ethyl]oxy-phenyl}-3-(4-hydroxyphenyl)-1,2,4-oxadiazole] | 59% | 94% | 87% | 97%
5 | CCN(CC)CCOc1ccccc1-c1nc(-c2ccccc2)no1 [Example 12, 5-{2-[2-(N,N-Diethylamino)ethyl]-oxy-phenyl}-3-phenyl-1,2,4-oxadiazole] | 68% | 87% | 90% | 85%
6 | c1ccc(-c2noc(-c3ccccc3OCCN3CCCC3)n2)cc1 [Example 13, 5-{2-[2-(N-Pyrrolidinyl)ethyl]oxy-phenyl}-3-phenyl-1,2,4-oxadiazole] | 83% | 91% | 95% | 96%
7 | c1ccc(-c2noc(-c3ccccc3OCCN3CCCCC3)n2)cc1 [Example 14, 5-{2-[2-(N-Piperidinyl)ethyl]oxy-phenyl}-3-phenyl-1,2,4-oxadiazole] | 93% | 87% | 100% | 96%
8 | Cc1ccc(-c2noc(-c3ccccc3OCCN(C)C)n2)cc1 [Example 17, 5-{2-[2-(N,N-Dimethylamino)-ethyl]oxy-phenyl}-3-(4-methyl-phenyl)-1,2,4-oxadiazole] | 65% | 78% | 80% | 97%
9 | CN(C)CCOc1ccccc1-c1nc(-c2ccc(Cl)cc2)no1 [Example 18, 5-{2-[2-(N,N-Dimethylamino)-ethyl]oxy-phenyl}-3-(4-chlor-phenyl)-1,2,4-oxadiazole] | 80% | 94% | 85% | 80%
10 | COc1ccc(-c2noc(-c3ccccc3OCCN(C)C)n2)cc1 [Example 19, 5-{2-[2-(N,N-Dimethylamino)-ethyl]oxy-phenyl}-3-(4-methoxy-phenyl)-1,2,4-oxadiazole] | 74% | 95% | 83% | 86%
11 | c1ccc(CNCCOc2ccccc2-c2nc(-c3ccccc3)no2)cc1 [Example 20, 5-{2-[2-(N-benzylamino)ethyl]-oxy-phenyl}-3-phenyl-1,2,4-oxadiazole] | 84% | 19% | 100% | 90%
12 | CC(C)NCCOc1ccccc1-c1nc(-c2ccccc2)no1 [Example 21, 5-{2-[2-(N-Isopropylamino)ethyl]-oxy-phenyl}-3-phenyl-1,2,4-oxadiazole] | 76% | 75% | 100% | 98%
13 | CNCCOc1ccccc1-c1nc(-c2ccccc2)no1 [Example 22, 5-{2-[2-(N-methylamino)ethyl]-oxy-phenyl}-3-phenyl-1,2,4-oxadiazole] | 78% | 64% | 94% | 94%
14 | CCNCCOc1ccccc1-c1nc(-c2ccccc2)no1 [Example 23, 5-{2-[2-(N-ethylamino)ethyl]-oxy-phenyl}-3-phenyl-1,2,4-oxadiazole] | 79% | 63% | 99% | 93%
15 | NCCOc1ccccc1-c1nc(-c2ccccc2)no1 [Example 24, 5-[2-(2-aminoethyl)oxy-phenyl]-3-phenyl-1,2,4-oxadiazole] | 52% | 27% | 89% | 96%
16 | CN(C)CCOc1ccccc1-c1nc(-c2ccccc2Cl)no1 [Example 27, 5-{2-[2-(N,N-Dimethylamino)-ethyl]oxy-phenyl}-3-(2-chloro-phenyl)-1,2,4-oxadiazole] | 84% | 90% | 79% | 91%
17 | CN(C)CCOc1ccccc1-c1nc(-c2ccc(Cl)cc2Cl)no1 [Example 28, 5-{2-[2-(N,N-Dimethylamino)-ethyl]oxy-phenyl}-3-(2,4-dichloro-phenyl)-1,2,4-oxadiazole] | 84% | 92% | 91% | 87%
18 | CN(C)CCOc1ccccc1-c1nc(-c2ccsc2)no1 [Example 54, 5-{2-[2-(N,N-Dimethylamino)-ethyl]oxy-phenyl}-3-(3-thienyl)-1,2,4-oxadiazole] | 68% | 95% | 62% | –
19 | CN(C)CCOc1ccccc1-c1nc(C2CC2)no1 [Example 55, 5-{2-[2-(N,N-Dimethylamino)-ethyl]oxy-phenyl}-3-cyclopropyl-1,2,4-oxadiazole] | – | – | – | 81%
